Measured values taken from the supplement of paper PMC10307832.

Tests used:
Test in all cases: relative viability (nuclei count vs DMSO), 5 days (fraction); higher = more cells survive
SK-LU-1 = tested on: SK-LU-1
Method in brief: (§1)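 Cells from lung cancer lines were seeded into 1536-well plates and, one day later, dosed by pin tool. Treatments were either a single drug or a fixed dose of an anchor drug with five library-drug doses (not always all listed) in √10 steps. After 5 days, nuclei were stained in a one-step fixation (final 0.05% Triton X-100, 1% formaldehyde, 1 ug/ml Hoechst) and counted on 4× images, and relative viability is the treated-to-vehicle nuclei ratio, as the median of duplicate plates.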

NCI-H1734 = tested on: NCI-H1734
Method in brief: as §1

ABC-1 = tested on: ABC-1
Method in brief: as §1

NCI-H1651 = tested on: NCI-H1651
Method in brief: as §1

RERF-LC-KJ = tested on: RERF-LC-KJ
Method in brief: as §1

EMC-BAC-2 = tested on: EMC-BAC-2
Method in brief: as §1

NCI-H1755 = tested on: NCI-H1755
Method in brief: as §1

HCC-366 = tested on: HCC-366
Method in brief: as §1

NCI-H727 = tested on: NCI-H727
Method in brief: as §1

NCI-H2347 = tested on: NCI-H2347
Method in brief: as §1

NCI-H1650 = tested on: NCI-H1650
Method in brief: as §1

PC-3 [JPC-3] = tested on: PC-3 [JPC-3]
Method in brief: as §1

NCI-H441 = tested on: NCI-H441
Method in brief: as §1

NCI-H1437 = tested on: NCI-H1437
Method in brief: as §1

CAL-12T = tested on: CAL-12T
Method in brief: as §1

NCI-H3122 = tested on: NCI-H3122
Method in brief: as §1

COR-L23 = tested on: COR-L23
Method in brief: as §1

UMC-11 = tested on: UMC-11
Method in brief: as §1

HARA = tested on: HARA
Method in brief: as §1

NCI-H596 = tested on: NCI-H596
Method in brief: as §1

HOP-62 = tested on: HOP-62
Method in brief: as §1

NCI-H1563 = tested on: NCI-H1563
Method in brief: as §1

Which results are given for CCNC(=O)c1noc(-c2cc(C(C)C)c(O)cc2O)c1-c1ccc(CN2CCOCC2)cc1 [Luminespib] + CC(C)C[C@H](NC(=O)[C@H](Cc1ccccc1)NC(=O)c1cnccn1)B(O)O [Bortezomib] (partner 0.002 µM)?
relative viability (SK-LU-1; first compound 0.002 µM): 1.19; relative viability (SK-LU-1; first compound 0.006325 µM): 1.02; relative viability (SK-LU-1; first compound 0.02 µM): 0.716; relative viability (SK-LU-1; first compound 0.06325 µM): 0.199; relative viability (SK-LU-1; first compound 0.2 µM): 0.203; relative viability (NCI-H1734; first compound 0.002 µM): 1.06; relative viability (NCI-H1734; first compound 0.006325 µM): 0.823; relative viability (NCI-H1734; first compound 0.02 µM): 0.698; relative viability (NCI-H1734; first compound 0.06325 µM): 0.118; relative viability (NCI-H1734; first compound 0.2 µM): 0.117; relative viability (ABC-1; first compound 0.002 µM): 0.258; relative viability (ABC-1; first compound 0.006325 µM): 0.315; relative viability (ABC-1; first compound 0.02 µM): 0.238; relative viability (ABC-1; first compound 0.06325 µM): 0.267; relative viability (ABC-1; first compound 0.2 µM): 0.255; relative viability (NCI-H1651; first compound 0.002 µM): 0.947; relative viability (NCI-H1651; first compound 0.006325 µM): 0.864; relative viability (NCI-H1651; first compound 0.02 µM): 0.91; relative viability (NCI-H1651; first compound 0.06325 µM): 0.89; relative viability (NCI-H1651; first compound 0.2 µM): 0.793; relative viability (RERF-LC-KJ; first compound 0.002 µM): 1.06; relative viability (RERF-LC-KJ; first compound 0.006325 µM): 1.13; relative viability (RERF-LC-KJ; first compound 0.02 µM): 1.06; relative viability (RERF-LC-KJ; first compound 0.06325 µM): 0.69; relative viability (RERF-LC-KJ; first compound 0.2 µM): 0.268; relative viability (EMC-BAC-2; first compound 0.002 µM): 1.1; relative viability (EMC-BAC-2; first compound 0.006325 µM): 1.02; relative viability (EMC-BAC-2; first compound 0.02 µM): 0.844; relative viability (EMC-BAC-2; first compound 0.06325 µM): 1.1; relative viability (EMC-BAC-2; first compound 0.2 µM): 0.913; relative viability (NCI-H1755; first compound 0.002 µM): 0.992; relative viability (NCI-H1755; first compound 0.006325 µM): 0.909; relative viability (NCI-H1755; first compound 0.02 µM): 0.954; relative viability (NCI-H1755; first compound 0.06325 µM): 0.528; relative viability (NCI-H1755; first compound 0.2 µM): 0.169; relative viability (HCC-366; first compound 0.002 µM): 1.01; relative viability (HCC-366; first compound 0.006325 µM): 1.01; relative viability (HCC-366; first compound 0.02 µM): 0.474; relative viability (HCC-366; first compound 0.06325 µM): 0.025; relative viability (HCC-366; first compound 0.2 µM): 0.0174; relative viability (NCI-H727; first compound 0.002 µM): 0.802; relative viability (NCI-H727; first compound 0.006325 µM): 0.782; relative viability (NCI-H727; first compound 0.02 µM): 0.379; relative viability (NCI-H727; first compound 0.06325 µM): 0.23; relative viability (NCI-H727; first compound 0.2 µM): 0.215; relative viability (NCI-H2347; first compound 0.002 µM): 0.947; relative viability (NCI-H2347; first compound 0.006325 µM): 0.601; relative viability (NCI-H2347; first compound 0.02 µM): 0.737; relative viability (NCI-H2347; first compound 0.06325 µM): 0.587; relative viability (NCI-H2347; first compound 0.2 µM): 0.36; relative viability (NCI-H1650; first compound 0.002 µM): 0.209; relative viability (NCI-H1650; first compound 0.006325 µM): 0.193; relative viability (NCI-H1650; first compound 0.02 µM): 0.201; relative viability (NCI-H1650; first compound 0.06325 µM): 0.222; relative viability (NCI-H1650; first compound 0.2 µM): 0.194; relative viability (PC-3 [JPC-3]; first compound 0.002 µM): 0.865; relative viability (PC-3 [JPC-3]; first compound 0.006325 µM): 0.812; relative viability (PC-3 [JPC-3]; first compound 0.02 µM): 0.977; relative viability (PC-3 [JPC-3]; first compound 0.06325 µM): 0.942; relative viability (PC-3 [JPC-3]; first compound 0.2 µM): 0.503; relative viability (NCI-H441; first compound 0.002 µM): 0.566; relative viability (NCI-H441; first compound 0.006325 µM): 0.446; relative viability (NCI-H441; first compound 0.02 µM): 0.236; relative viability (NCI-H441; first compound 0.06325 µM): 0.127; relative viability (NCI-H441; first compound 0.2 µM): 0.133; relative viability (NCI-H1437; first compound 0.002 µM): 0.511; relative viability (NCI-H1437; first compound 0.006325 µM): 0.38; relative viability (NCI-H1437; first compound 0.02 µM): 0.431; relative viability (NCI-H1437; first compound 0.06325 µM): 0.247; relative viability (NCI-H1437; first compound 0.2 µM): 0.0895; relative viability (CAL-12T; first compound 0.002 µM): 1.04; relative viability (CAL-12T; first compound 0.006325 µM): 0.929; relative viability (CAL-12T; first compound 0.02 µM): 0.539; relative viability (CAL-12T; first compound 0.06325 µM): 0.147; relative viability (CAL-12T; first compound 0.2 µM): 0.149; relative viability (NCI-H3122; first compound 0.002 µM): 1.01; relative viability (NCI-H3122; first compound 0.006325 µM): 1.01; relative viability (NCI-H3122; first compound 0.02 µM): 1.05; relative viability (NCI-H3122; first compound 0.06325 µM): 0.165; relative viability (NCI-H3122; first compound 0.2 µM): 0.199; relative viability (COR-L23; first compound 0.002 µM): 1.02; relative viability (COR-L23; first compound 0.006325 µM): 0.85; relative viability (COR-L23; first compound 0.02 µM): 0.718; relative viability (COR-L23; first compound 0.06325 µM): 0.079; relative viability (COR-L23; first compound 0.2 µM): 0.079; relative viability (UMC-11; first compound 0.002 µM): 0.838; relative viability (UMC-11; first compound 0.006325 µM): 0.616; relative viability (UMC-11; first compound 0.02 µM): 0.365; relative viability (UMC-11; first compound 0.06325 µM): 0.226; relative viability (UMC-11; first compound 0.2 µM): 0.087; relative viability (HARA; first compound 0.002 µM): 1.12; relative viability (HARA; first compound 0.006325 µM): 1; relative viability (HARA; first compound 0.02 µM): 1.14; relative viability (HARA; first compound 0.06325 µM): 0.474; relative viability (HARA; first compound 0.2 µM): 0.0833; relative viability (NCI-H596; first compound 0.002 µM): 1.03; relative viability (NCI-H596; first compound 0.006325 µM): 0.915; relative viability (NCI-H596; first compound 0.06325 µM): 1.07; relative viability (NCI-H596; first compound 0.2 µM): 0.999; relative viability (HOP-62; first compound 0.002 µM): 0.652; relative viability (HOP-62; first compound 0.006325 µM): 0.924; relative viability (HOP-62; first compound 0.02 µM): 0.852; relative viability (HOP-62; first compound 0.06325 µM): 0.856; relative viability (HOP-62; first compound 0.2 µM): 0.0907; relative viability (NCI-H1563; first compound 0.002 µM): 0.956; relative viability (NCI-H1563; first compound 0.006325 µM): 0.821; relative viability (NCI-H1563; first compound 0.02 µM): 0.535; relative viability (NCI-H1563; first compound 0.06325 µM): 0.479; relative viability (NCI-H1563; first compound 0.2 µM): 0.507
